For 16 molecules, Ki and Kd results are on record in patent publication US9073911B2, “Pyrazole derivatives” (HOFFMANN-LA ROCHE INC., priority 2011, dated 2015).

Where a name gives a salt, the structure may show the parent alone.

The target of one assay is mouse TAAR1 (Mus musculus (Mouse), UniProt Q923Y8). The experiment in a line: Radioligand binding assay on mouse TAAR1. The conditions noted are these: for Ki: membranes of HEK-293 cells stably expressing mouse TAAR1, first value of cell mouse/rat. Here is the method: (§1) Construction of TAAR Expression Plasmids and Stably Transfected Cell Lines
mouse TAAR1, sequence (Q923Y8 whole entry): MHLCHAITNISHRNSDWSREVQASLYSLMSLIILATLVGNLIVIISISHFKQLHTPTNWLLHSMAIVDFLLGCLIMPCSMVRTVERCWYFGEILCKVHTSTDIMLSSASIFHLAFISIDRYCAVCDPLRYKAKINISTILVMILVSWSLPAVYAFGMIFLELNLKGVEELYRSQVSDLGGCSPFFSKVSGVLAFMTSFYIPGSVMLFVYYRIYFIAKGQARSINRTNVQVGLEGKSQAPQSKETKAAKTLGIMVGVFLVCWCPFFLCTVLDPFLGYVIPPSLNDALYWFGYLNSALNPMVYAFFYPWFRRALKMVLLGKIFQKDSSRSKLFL
(§2) For the construction of expression plasmids the coding sequences of human, rat and mouse TAAR 1 were amplified from genomic DNA essentially as described by Lindemann et al.. The Expand High Fidelity PCR System (Roche Diagnostics) was used with 1.5 mM Mg^2+ and purified PCR products were cloned into pCR2.1-TOPO cloning vector (Invitrogen) following the instructions of the manufacturer. PCR products were subcloned into the pIRESneo2 vector (BD Clontech, Palo Alto, Calif.), and expression vectors were sequence verified before introduction in cell lines.
(§3) HEK293 cells (ATCC # CRL-1573) were cultured essentially as described by Lindemann et al. (2005). For the generation of stably transfected cell lines HEK293 cells were transfected with the pIRESneo2 expression plasmids containing the TAAR coding sequences (described above) with Lipofectamine 2000 (Invitrogen) according to the instructions of the manufacturer, and 24 hrs post transfection the culture medium was supplemented with 1 mg/ml G418 (Sigma, Buchs, Switzerland). After a culture period of about 10 d clones were isolated, expanded and tested for responsiveness to trace amines (all compounds purchased from Sigma) with the cAMP Biotrak Enzyme immunoassay (EIA) System (Amersham) following the non-acetylation EIA procedure provided by the manufacturer.
Radioligand Binding Assay on Mouse TAAR1
(§4) Membrane Preparation and Radioligand Binding.
HEK-293 cells stably expressing mouse TAAR1 were maintained at 37° C. and 5% CO2 in DMEM high glucose medium, containing fetal calf serum (10%, heat inactivated for 30 min at 56° C.), penicillin/streptomycin (1%), and 375 μg/ml geneticin (Gibco). Cells were released from culture flasks using trypsin/EDTA, harvested, washed twice with ice-cold PBS (without Ca^2+ and Mg^2+), pelleted at 1,000 rpm for 5 min at 4° C., frozen and stored at −80° C. Frozen pellets were suspended in 20 ml HEPES-NaOH (20 mM, pH 7.4) containing 10 mM EDTA and homogenized with a Polytron (PT 6000, Kinematica) at 14,000 rpm for 20 s. The homogenate was centrifuged at 48,000×g for 30 min at 4° C. Subsequently, the supernatant was removed and discarded, and the pellet resuspended in 20 ml HEPES-NaOH (20 mM, pH 7.4) containing 0.1 mM EDTA using the Polytron (20 s at 14,000 rpm). This procedure was repeated and the final pellet resuspended in HEPES-NaOH containing 0.1 mM EDTA and homogenized using the Polytron. Typically, aliquots of 2 ml membrane portions were stored at −80° C. With each new membrane batch the dissociation constant (Kd) was determined via a saturation curve. The TAAR1 radioligand ^3[H]—(S)-4-[(ethyl-phenyl-amino)-methyl]-4,5-dihydro-oxazol-2-ylamine (described in WO 2008/098857) was used at a concentration equal to the calculated Kd value, that was usually around 0.7 nM, resulting in the binding of approximately 0.5% of the radioligand and a specific binding representing approximately 70% of the total binding. Nonspecific binding was defined as the amount of ^3[H]—(S)-4-[(ethyl-phenyl-amino)-methyl]-4,5-dihydro-oxazol-2-ylamine bound in the presence of 10 μM unlabeled ligand. All compounds were tested at a broad range of concentrations ([…]) in duplicates. […] The 96 deep well plates were incubated for 1 hr at 4° C. Incubations were terminated by rapid filtration through Unifilter-96 plates (Packard Instrument Company) and glass filters GF/C (Perkin Elmer) presoaked for 1 hr in polyethylenimine (0.3%) and washed 3 times with 1 ml of cold binding buffer. After addition of 45 μl of Microscint 40 (PerkinElmer) the Unifilter-96 plate was sealed and after 1 hr the radioactivity counted using a TopCount Microplate Scintillation Counter (Packard Instrument Company).

The target in a further assay is rat TAAR1 (Rattus norvegicus (Rat), UniProt Q923Y9). Description: Radioligand binding assay on rat TAAR1. The conditions noted are these: for Ki: membranes of HEK-293 cells stably expressing rat TAAR1, second value of cell mouse/rat. Here is the method:
as §1, §2, §3
Radioligand Binding Assay on rat TAAR1
as §4
HEK-293 cells stably expressing rat TAAR1 were maintained at 37° C. and 5% CO2 in DMEM high glucose medium, containing fetal calf serum (10%, heat inactivated for 30 min at 56° C.), penicillin/streptomycin (1%), and 375 μg/ml geneticin (Gibco). Cells were released from culture flasks using trypsin/EDTA, harvested, washed twice with ice-cold PBS (without Ca^2+ and Mg^2+), pelleted at 1,000 rpm for 5 min at 4° C., frozen and stored at −80° C. Frozen pellets were suspended in 20 ml HEPES-NaOH (20 mM, pH 7.4) containing 10 mM EDTA and homogenized with a Polytron (PT 6000, Kinematica) at 14,000 rpm for 20 s. The homogenate was centrifuged at 48,000×g for 30 min at 4° C. Subsequently, the supernatant was removed and discarded, and the pellet resuspended in 20 ml HEPES-NaOH (20 mM, pH 7.4) containing 0.1 mM EDTA using the Polytron (20 s at 14,000 rpm). This procedure was repeated and the final pellet resuspended in HEPES-NaOH containing 0.1 mM EDTA and homogenized using the Polytron. Typically, aliquots of 2 ml membrane portions were stored at −80° C. With each new membrane batch the dissociation constant (Kd) was determined via a saturation curve.
Nonspecific binding was defined as the amount of ^3-[H]-(S)-4-[(ethyl-phenyl-amino)-methyl]-4,5-dihydro-oxazol-2-ylamine bound in the presence of 10 μM unlabeled ligand. All compounds were tested at a broad range of concentrations (10 pM to 10 μM) in duplicates. […] The 96 deep well plates were incubated for 1 hr at 4° C. Incubations were terminated by rapid filtration through Unifilter-96 plates (Packard Instrument Company) and glass filters GF/C (Perkin Elmer) presoaked for 1 hr in polyethylenimine (0.3%) and washed 3 times with 1 ml of cold binding buffer. After addition of 45 μl of Microscint 40 (PerkinElmer) the Unifilter-96 plate was sealed and after 1 hr the ratioactivity counted using a TopCount Microplate Scintillation Counter (Packard Instrument Company).

A word on the Ki: it is the dissociation constant of the complex between target and ligand, obtained from inhibition or displacement. Low values mean higher affinity, high ones lower affinity. By Kd is commonly meant the concentration at which binding is half-saturated.

rat TAAR1, sequence (Q923Y9 whole entry): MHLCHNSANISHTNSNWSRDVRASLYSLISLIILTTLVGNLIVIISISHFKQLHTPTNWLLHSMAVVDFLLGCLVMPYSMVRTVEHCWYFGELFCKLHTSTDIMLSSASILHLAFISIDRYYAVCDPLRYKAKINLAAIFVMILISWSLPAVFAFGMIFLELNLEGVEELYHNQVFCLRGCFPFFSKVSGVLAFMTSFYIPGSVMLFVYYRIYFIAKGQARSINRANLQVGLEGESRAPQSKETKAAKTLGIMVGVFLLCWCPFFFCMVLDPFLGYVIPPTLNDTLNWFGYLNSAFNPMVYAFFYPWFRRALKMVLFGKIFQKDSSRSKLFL

`O=C(Nc1ccc([C@H]2CNCCO2)cc1)c1cc(-c2cccc(OC(F)F)c2)n[nH]1` [Example 40, (S)-3-(3-(Difluoromethoxy)phenyl)-N-(4-(morpholin-2-yl)phenyl)-1H-pyrazole-5-carboxamide hydrochloride]: the values for the Ki on mouse TAAR1 and at rat TAAR1 were 0.0005 µM and 0.0013 µM, respectively.

Regarding `CCn1nc(C(=O)Nc2ccc([C@H]3CNCCO3)cc2)cc1-c1cccc(OC(F)F)c1` [Example 41, (S)-5-(3-(Difluoromethoxy)phenyl)-1-ethyl-N-(4-(morpholin-2-yl)phenyl)-1H-pyrazole-3-carboxamide hydrochloride], the Ki at mouse TAAR1 is 0.0025 µM; at rat TAAR1, 0.0016 µM.

Take `CCn1nc(-c2cccc(OC(F)F)c2)cc1C(=O)Nc1ccc([C@H]2CNCCO2)cc1` [Example 42, (S)-3-(3-(Difluoromethoxy)phenyl)-1-ethyl-N-(4-(morpholin-2-yl)phenyl)-1H-pyrazole-5-carboxamide hydrochloride]: the inhibitory constant (Ki) worked out at 0.001 µM on mouse TAAR1 and 0.0021 µM on rat TAAR1.

Consider `N#Cc1cccc(-c2cc(C(=O)Nc3ccc([C@H]4CNCCO4)cc3)[nH]n2)c1F` [Example 43, (S)-3-(3-Cyano-2-fluorophenyl)-N-(4-(morpholin-2-yl)phenyl)-1H-pyrazole-5-carboxamide hydrochloride], for which the inhibitory constant (Ki) on mouse TAAR1 was found to be 0.0016 µM; on rat TAAR1, 0.011 µM.

For the molecule `Cn1nc(-c2cccc(OC(F)F)c2)cc1C(=O)Nc1ccc([C@H]2CNCCO2)cc1` [Example 44, (S)-3-(3-(Difluoromethoxy)phenyl)-1-methyl-N-(4-(morpholin-2-yl)phenyl)-1H-pyrazole-5-carboxamide hydrochloride], the Ki at mouse TAAR1 came out at 0.0663 µM; on rat TAAR1, 0.0262 µM.

Regarding `O=C(Nc1ccc([C@H]2CNCCO2)cc1)c1ccn(-c2ccc(OC(F)F)cc2)n1` [Example 45, (S)-1-(4-(Difluoromethoxy)phenyl)-N-(4-(morpholin-2-yl)phenyl)-1H-pyrazole-3-carboxamide hydrochloride], the inhibitory constant (Ki) at mouse TAAR1 came out at 0.0018 µM; on rat TAAR1, 0.0014 µM.

In the case of `O=C(Nc1ccc([C@@H]2CNCCO2)cc1)c1ccn(-c2ccc(OC(F)F)cc2)n1` [Example 46, (R)-1-(4-(Difluoromethoxy)phenyl)-N-(4-(morpholin-2-yl)phenyl)-1H-pyrazole-3-carboxamide hydrochloride], the Ki was found to be 0.004 µM at mouse TAAR1 and 0.0006 µM on rat TAAR1.

In the case of `O=C(Nc1ccc([C@H]2CNCCO2)cc1)c1ccn(-c2ncc(C(F)(F)F)cn2)n1` [Example 47, (S)—N-(4-(Morpholin-2-yl)phenyl)-1-(5-(trifluoromethyl)pyrimidin-2-yl)-1H-pyrazole-3-carboxamide hydrochloride], the Ki on mouse TAAR1 came to 0.0198 µM; on rat TAAR1, 0.0196 µM.

On to `O=C(Nc1ccc([C@H]2CNCCO2)cc1)c1ccn(-c2cncc(Cl)n2)n1` [Example 48, (S)-1-(6-Chloropyrazin-2-yl)-N-(4-(morpholin-2-yl)phenyl)-1H-pyrazole-3-carboxamide hydrochloride], for which the Ki on mouse TAAR1 is 0.0086 µM; at rat TAAR1, 0.0118 µM.

Consider `O=C(Nc1ccc([C@H]2CNCCO2)cc1)c1ccn(-c2nccnc2Cl)n1` [Example 49, (S)-1-(3-Chloropyrazin-2-yl)-N-(4-(morpholin-2-yl)phenyl)-1H-pyrazole-3-carboxamide hydrochloride], for which the inhibition constant Ki is 0.0142 µM on mouse TAAR1 and 0.139 µM at rat TAAR1.

For the molecule `O=C(Nc1ccc([C@H]2CNCCO2)cc1)c1ccn(-c2cnc(Cl)cn2)n1` [Example 50, (S)-1-(5-Chloropyrazin-2-yl)-N-(4-(morpholin-2-yl)phenyl)-1H-pyrazole-3-carboxamide hydrochloride], the values for the inhibition constant (Ki) at mouse TAAR1 and on rat TAAR1 were 0.0027 µM and 0.0091 µM, respectively.

Take `O=C(Nc1ccc([C@H]2CNCCO2)cc1)c1ccn(-c2cc(C(F)(F)F)ncn2)n1` [Example 51, (S)—N-(4-(Morpholin-2-yl)phenyl)-1-(6-(trifluoromethyl)pyrimidin-4-yl)-1H-pyrazole-3-carboxamide hydrochloride]: the Ki at mouse TAAR1 was found to be 0.0142 µM; at rat TAAR1, 0.0071 µM.

In the case of `O=C(Nc1ccc([C@H]2CNCCO2)cc1)c1ccn(-c2cncc(C(F)(F)F)n2)n1` [Example 52, (S)—N-(4-(Morpholin-2-yl)phenyl)-1-(6-(trifluoromethyl)pyrazin-2-yl)-1H-pyrazole-3-carboxamide hydrochloride], the Ki on mouse TAAR1 is 0.0084 µM; on rat TAAR1, 0.0074 µM.

With `N#Cc1cnc(-n2ccc(C(=O)Nc3ccc([C@H]4CNCCO4)cc3)n2)cn1` [Example 53, (S)-1-(5-Cyanopyrazin-2-yl)-N-(4-(morpholin-2-yl)phenyl)-1H-pyrazole-3-carboxamide hydrochloride], the results for the Ki on mouse TAAR1 and on rat TAAR1 were 0.011 µM and 0.0298 µM, respectively.

As for `O=C(Nc1ccc([C@H]2CNCCO2)cc1)c1ccn(-c2ccnc(C(F)(F)F)n2)n1` [Example 54, (S)—N-(4-(Morpholin-2-yl)phenyl)-1-(2-(trifluoromethyl)pyrimidin-4-yl)-1H-pyrazole-3-carboxamide hydrochloride], the results for the Ki at mouse TAAR1 and at rat TAAR1 were 0.0065 µM and 0.0088 µM, respectively.

As to `CCN(C[C@H]1COC(N)=N1)c1ccccc1` [^3[H]—(S)-4-[(ethyl-phenyl-amino)-methyl]-4,5-dihydro-oxazol-2-ylamine, reference compound], the Kd at mouse TAAR1 (mouse TAAR1 membranes, saturation curve, usual value, read-out: calculated Kd value of the TAAR1 radioligand) was around 0.7 nM; on rat TAAR1 (rat TAAR1 membranes, saturation curve, usual value, read-out: calculated Kd value of the TAAR1 radioligand), around 2.3 nM.
